Test results as given in patent publication US6727253B2, “Treatment of accidental extravasation of anthracyclines” (Antianthra APS, priority 1999, dated 2004).
Where two headings read alike, the source gives them in different places.

Legend:
[1] = tested on: SC daunorubicin induced wounds in mice; settings: for AUC / DW / FW / TTW: Table A
Description: The mice were euthanized after healing of all wounds.
The effect of various doses of ICRF-187 was investigated in Example 3.
Comparison of two concentrations of sc daunorubicin were compared with and without simultaneous treatment with ICRF-187 250 mg/kg.
ICRF-187 was administered at the same time as daunorubicin, 3 hours after, and 6 hours after, respectively. Saline served as control. The dose of daunorubicin was 3 mg/kg so and ICRF-187 was administered IP in a 250 mg/kg solution. Twenty-eight mice were used. The results are depicted in data sheet #6 and the mean AUCs are shown graphically in FIG. 5.
100 mg/kg ICRF-187 was injected into the subcutaneous papule produced by injected daunorubicin. This treatment was compared to intralesional saline control, IP saline control, and IP treatment with ICRF-187.
[…]. Seven experiments (n=6, 7, 7, 9, 9, 9, and 9) with 3 mg/kg daunorubicin SC plus saline IP at t=0 and seven experiments (n=6, 7, 7, 9, 9, 8, and 9) with 3 mg/kg daunorubicin SC plus 250 mg/kg ICRF-187 IP at t=0tin two experiments (n=9 and 4) the ICRF-187 doses were 62,5 mg/kg and 375 mg/kg IP, respectively, in two (n=7 and 9) the dose was 125 mg/kg. ICRF-187 250 mg/kg was administered IV in one (n=9).

[2] = tested on: wound after doxorubicin SC in swine; test: Pilot study on swine, doxorubicin SC; assay type: in vivo; settings: 3 mg doxorubicin SC, ICRF-187 25 mg/kg IV at t=0
Description: A danish porker weighting approximately 30 kg was used. The animals were fully anesthesized and artificially ventilated during SC injection of 1 ml of anthracycline.

[3] = Example 3, daunorubicin 3 mg/kg sc + ICRF-187 250 mg/kg IP
[4] = Example 3, daunorubicin 3 mg/kg sc + ICRF-187 375 mg/kg IP
[5] = Example 4, daunorubicin 1 mg/kg sc + ICRF-187 250 mg/kg IP simultaneous
[6] = Example 4, daunorubicin 3 mg/kg sc + ICRF-187 250 mg/kg IP simultaneous
[7] = Example 5, daunorubicin 1 mg/kg sc + ICRF-187 250 mg/kg IP
[8] = Example 5, daunorubicin 3 mg/kg sc + ICRF-187 250 mg/kg IP
[9] = Example 6, daunorubicin 3 mg/kg sc + ICRF-187 250 mg/kg IP 3 hours after daunorubicin
[10] = Example 6, daunorubicin 3 mg/kg sc + ICRF-187 250 mg/kg IP 6 hours after daunorubicin
[11] = Example 6, daunorubicin 3 mg/kg sc + ICRF-187 250 mg/kg IP at the same time
[12] = Example 7, daunorubicin 3 mg/kg sc + 0.05 ml ICRF-187 100 mg/kg IL
[13] = Example 7, daunorubicin 3 mg/kg sc + ICRF-187 250 mg/kg IP
[14] = daunorubicin 1 mg/kg SC + DEX 250 mg/kg IP at t=0, pooled data
[15] = daunorubicin 3 mg/kg SC + DEX 125 mg/kg IP at t=0, +3h and +6h
[16] = daunorubicin 3 mg/kg SC + DEX 125 mg/kg IP at t=0, pooled data
[17] = daunorubicin 3 mg/kg SC + DEX 250 mg/kg IP at t=0, pooled data
[18] = daunorubicin 3 mg/kg SC + DEX 250 mg/kg IP at t=0, pooled data, listed as DEX
[19] = daunorubicin 3 mg/kg SC + DEX 250 mg/kg IP at t=+3h
[20] = daunorubicin 3 mg/kg SC + DEX 250 mg/kg IP at t=+6h
[21] = daunorubicin 3 mg/kg SC + DEX 250 mg/kg IP day 0, 1, and 2
[22] = daunorubicin 3 mg/kg SC + DEX 250 mg/kg IV at t=0
[23] = daunorubicin 3 mg/kg SC + DEX 375 mg/kg IP at t=0
[24] = daunorubicin 3 mg/kg SC + DEX 62,5 mg/kg IP at t=0
[25] = daunorubicin 3 mg/kg SC + DEX 62,5 mg/kg IP at t=0, +3h and +6h
[26] = pooled, daunorubicin 3 mg/kg SC, ICRF-187 250 mg/kg IP at t=0, p<0.0001

For `C[C@@H](CN1CC(=O)NC(=O)C1)N1CC(=O)NC(=O)C1` [ICRF-187, (+)-1,2-bis(3,5-dioxopiperazinyl-1-yl)propane], the “Mean AUC” value [1, 3] was 395 mm^2 × days, the “Mean DWw ± SEM” value [1, 3] was 29.2 ± 1.1 days and the “Mean TTWw ± SEM” value [1, 3] was 7.8 ± 1.1 days. For the same molecule, the Nw/NG [1, 3] was 83%, the “Mean AUC” value [1, 4] was 57 mm^2 × days and the “Mean DWw ± SEM” value [1, 4] was 27.0 ± 0.0 days. For the same molecule, the “Mean TTWw ± SEM” value [1, 4] was 4.0 ± 0.0 days, the Nw/NG [1, 4] was 25% and the “reduction of the AUC” value ([1]; Example 3, daunorubicin 3 mg/kg sc, ICRF-187 250 mg/kg vs saline, p<0.05) was 48%. The “reduction of the AUC” value ([1]; Example 3, daunorubicin 3 mg/kg sc, ICRF-187 375 mg/kg vs saline, p<0.05) was 93%, the “reduction in AUC” value ([1]; Example 4, daunorubicin 1 mg/kg sc (low dose), ICRF-187 250 mg/kg IP, p<0.05) was 100% and the “Mean AUC” value [1, 5] was 0 mm^2 × days. For the same molecule, the Nw/NG [1, 5] was 0%, the “reduction in AUC” value ([1]; Example 4, daunorubicin 3 mg/kg sc (high dose), ICRF-187 250 mg/kg IP, p<0.05) was 75% and the “Mean AUC” value [1, 6] was 313 mm^2 × days. The “Mean DWw ± SEM” value [1, 6] was 14.0 ± 1.5 days, the “Mean TTWw ± SEM” value [1, 6] was 12.0 ± 3.5 days and the Nw/NG [1, 6] was 43%. For the same molecule, the “Mean AUC” value [1, 7] was 50 mm^2 × days, the “Mean DWw ± SEM” value [1, 7] was 16.0 ± 4.0 days and the “Mean TTWw ± SEM” value [1, 7] was 10.5 ± 3.5 days. For the same molecule, the Nw/NG [1, 7] was 22%, the “reduction of AUC” value ([1]; Example 5, daunorubicin 1 mg/kg sc, ICRF-187 250 mg/kg IP, p<0.05) was 73% and the “Mean AUC” value [1, 8] was 158 mm^2 × days. For the same molecule, the “Mean DWw ± SEM” value [1, 8] was 13.7 ± 1.7 days, the “Mean TTWw ± SEM” value [1, 8] was 9.9 ± 1.8 days and the Nw/NG [1, 8] was 78%. The “reduction of AUC” value ([1]; Example 5, daunorubicin 3 mg/kg sc, ICRF-187 250 mg/kg IP, p<0.05) was 83%, the “Mean AUC” value [1, 9] was 421 mm^2 × days and the “Mean DWw ± SEM” value [1, 9] was 21.0 ± 4.0 days. For the same molecule, the “Mean TTWw ± SEM” value [1, 9] was 7.0 ± 0.6 days, the Nw/NG [1, 9] was 43% and the “Mean AUC” value [1, 10] was 926 mm^2 × days. The “Mean DWw ± SEM” value [1, 10] was 24.9 ± 0.8 days, the “Mean TTWw ± SEM” value [1, 10] was 6.7 ± 0.6 days and the Nw/NG [1, 10] was 100%. The “Mean AUC” value [1, 11] was 326 mm^2 × days, the “Mean DWw ± SEM” value [1, 11] was 19.6 ± 0.7 days and the “Mean TTWw ± SEM” value [1, 11] was 7.7 ± 0.5 days. For the same molecule, the Nw/NG [1, 11] was 100%, the AUC reduced ([1]; Example 6, daunorubicin 3 mg/kg sc, ICRF-187 250 mg/kg IP 6 hours delay, statistically non-significant) was 34% and the AUC reduced ([1]; Example 6, daunorubicin 3 mg/kg sc, ICRF-187 250 mg/kg IP at t=0, p<0.05) was 77%. For the same molecule, the AUC reduced ([1]; Example 6, daunorubicin 3 mg/kg sc, ICRF-187 250 mg/kg IP at t=+3 hours, p<0.05) was 70%, the “Mean AUC” value [1, 12] was 403 mm^2 × days and the “Mean DWw ± SEM” value [1, 12] was 19.4 ± 2.3 days. The “Mean TTWw ± SEM” value [1, 12] was 6.9 ± 1.6 days, the Nw/NG [1, 12] was 78% and the “Mean AUC” value [1, 13] was 562 mm^2 × days. The “Mean DWw ± SEM” value [1, 13] was 19.0 ± 0.9 days, the “Mean TTWw ± SEM” value [1, 13] was 9.6 ± 0.7 days and the Nw/NG [1, 13] was 89%. The “reduction of the AUC” value ([1]; Example 7, daunorubicin 3 mg/kg sc, ICRF-187 250 mg/kg IP, p<0.05) was 51%, the AUC [1, 14] was 28 (± 22) mm^2×days and the DW [1, 14] was 16.0 (± 4.0) days. For the same molecule, the FW [1, 14] was 13%, the TTW [1, 14] was 10.5 (± 3.5) days and the AUC [1, 15] was 112 (± 37) mm^2×days. The DW [1, 15] was 18.0 (± 0.0) days, the FW [1, 15] was 22% and the TTW [1, 15] was 16.5 (± 0.5) days. The AUC [1, 16] was 692 (± 115) mm^2×days, the DW [1, 16] was 20.6 (± 0.8) days and the FW [1, 16] was 88%. For the same molecule, the TTW [1, 16] was 8.4 (± 0.6) days, the AUC [1, 17] was 373 (± 48) mm^2×days and the DW [1, 17] was 17.4 days. For the same molecule, the FW [1, 17] was 78%, the TTW [1, 17] was 9.7 days and the DW [1, 18] was 17.4 (± 0.6) days. For the same molecule, the TTW [1, 18] was 9.7 (± 0.5) days, the AUC [1, 19] was 420 (± 206) mm^2×days and the DW [1, 19] was 21.0 (± 4.0) days. The FW [1, 19] was 43%, the TTW [1, 19] was 7.0 (± 0.6) days and the AUC [1, 20] was 927 (± 163) mm^2×days. The DW [1, 20] was 24.9 (± 0.8) days, the FW [1, 20] was 100% and the TTW [1, 20] was 6.7 (± 0.6) days. For the same molecule, the AUC [1, 21] was 128 (± 34) mm^2×days, the DW [1, 21] was 13.3 (± 1.2) days and the FW [1, 21] was 75%. For the same molecule, the TTW [1, 21] was 17.7 (± 1.0) days, the AUC [1, 22] was 479 (± 141) mm^2×days and the DW [1, 22] was 19.3 (± 1.3) days. For the same molecule, the FW [1, 22] was 67%, the TTW [1, 22] was 9.2 (± 1.2) days and the AUC [1, 23] was 57 (± 57) mm^2×days. The DW [1, 23] was 23.0 (± 0.0) days, the FW [1, 23] was 25% and the TTW [1, 23] was 4.0 (± 0.0) days. The AUC [1, 24] was 662 (± 223) mm^2×days, the DW [1, 24] was 19.4 (± 1.3) days and the FW [1, 24] was 89%. For the same molecule, the TTW [1, 24] was 8.1 (± 0.5) days, the AUC [1, 25] was 0 mm^2×days and the FW [1, 25] was 0%. For the same molecule, the prevention of lesions ([1]; daunorubicin induced lesions, ICRF-187 250 mg/kg IP three days in a row) was “completely prevented”, the “protection by IP injection compared to IV administration” value ([1]; daunorubicin induced wounds, ICRF-187 250 mg/kg) was “no statistically significant difference” and the “degree of protection, triple-treatment” value ([1]; daunorubicin, ICRF-187 62,5 or 125 mg/kg IP at 0, 3 and 6 hours) was “at least the same degree of protection as a single injection of 250 mg/kg ICRF-187 IP”. For the same molecule, the “protection with delayed administration” value ([1]; daunorubicin, ICRF-187 administered 3 hours after) was “no different from the protection obtained by immediate ICRF-187 administration”, the “protection with delayed administration” value ([1]; daunorubicin, ICRF-187 delay 6 hours) was “protection was lost” and the treatment-related deaths ([1]; mouse, in vivo) was “no treatment-related deaths”. The “reduction in AUC” value ([1]; pooled, daunorubicin 3 mg/kg SC, ICRF-187 125 mg/kg IP, p=0.0175 vs 250 mg/kg) was 45%, the “mean duration of wounds reduced by” value [1, 26] was 35% and the “mean time to wounds delayed by” value [1, 26] was 76%. The “mean AUC reduced by” value ([1]; pooled, daunorubicin 3 mg/kg SC, single ICRF-187 250 mg/kg IP at t=0, p<0.0001) was 70% and the ulcer development [2] was “did not develope an ulcer”.
